From US20250090502A1, “METHODS OF TREATING, AMELIORATING, AND/OR PREVENTING BACTERIAL INFECTION, OR METHODS OF REDUCING ADVERSE EFFECTS CAUSED BY BACTERIA” (Drexel University, priority 2023, published 2025) come the findings set out here.

In experiment [1] the test system is P. aeruginosa. The experiment can be described thus: Pyocyanin toxin production by P. aeruginosa cultures. Format: cell-based. To be noted: P. aeruginosa culture, single agent. The source says: FIG. 4 illustrates certain aspects of the effect of HEJ14 on pyocyanin toxin production by the Gram-negative bacteria P. aeruginosa, in accordance with some embodiments. […] The bar chart illustrates the effect of HEJ14 on pyocyanin by P. aeruginosa at various HEJ14 concentrations.
Unexpectedly, the present study discovered that some of the hit compounds, as single agents, inhibited pyocyanin toxin production (FIG. 4) in the Gram-negative pathogen P. aeruginosa at higher specific activities (nanomolar) than required for RelA inhibition. Thus, the present study pursued a bipartite strategy of developing the compounds to treat biofilms, and to “convert” pathogens to commensals.

The subject of another experiment is S. aureus. Kind of experiment: Hemolytic activity of S. aureus culture supernatants on sheep's blood agar. The following applies: S. aureus cultures incubated with HEJ14 (125 μM) for 24 hrs vs vehicle. Format: cell-based, Staphylococcus aureus. The method, then: S. aureus broth cultures were incubated with vehicle or HEJ14 (125 μM) for 24 hrs. The supernatants were filter sterilized (0.2 μm) and 5 μL plated in serial dilutions on 5% sheep's blood agar, starting with V1 (vehicle treated plate) and R1 (HEJ14 treated plate).

In experiment [2] the test system is methicillin-resistant S. aureus (MRSA) (strain USA300 LAC::lux). Kind of experiment: Mouse model of S. aureus intradermal infection (MRSA USA300 LAC::lux). Format: in vivo, mice. The following applies: single dose of 125 μM or 250 μM HEJ14 at time of infection, day 3, vs vehicle, dose-dependent. The method, then:
The dorsal skin surfaces of anesthetized mice were shaved; a 100 μL volume of 3×10^7 CFU of methicillin-resistant S. aureus (MRSA) (strain USA300 LAC::lux) was injected intradermally with, from left to right, vehicle, 125 μM of HEJ14, or 250 μM of HEJ14. FIG. 8A: Digital photographs of dorsal lesions. FIG. 8B: Digital bioluminescent signals of S. aureus. FIG. 8C: images from FIG. 8A were analyzed using Image J to obtain total lesion areas. FIG. 8D Images from FIG. 8B were analyzed by Image J to determine bacterial burden based on photon count.
To investigate the efficacy of a RelA inhibitor against in vivo bacterial infections, the present study employed an established mouse model of S. aureus intradermal infection with the community-associated methicillin-resistant S. aureus infections (CA-MRSA) bioluminescent strain USA300 LAC::lux (Marchitto et al., Proc Natl Acad Sci USA 2019; 116:10917-26; Alphonse et al., Sci Transl Med 2021; 13.; Wang et al., Nat Med 2007; 13:1510-4.; Dong et al., Immunity 2022; 55:1645-62.e7).

A further experiment deals with agr. The experiment can be described thus: S. aureus agr-GFP reporter expression. To be noted: stationary phase; HEJ14 125, 250, 500 μM. Format: cell-based, Staphylococcus aureus. As for the experimental part:
(§1) Cultures of a S. aureus expressing an agr-GFP reporter were incubated with vehicle (0 μM) or various concentrations of HEJ14 ([…], 250 μM, and 500 μM). The bacterial growth (OD600) and GFP signal intensity (RFU) were measured for a duration of 24 hours at 20-minute intervals. FIG. 6A: Bacterial growth (OD600).
FIG. 6B: agr expression as measured by GFP signal intensity (RFU) normalized to OD600.
Since the stringent response in S. aureus induces PSMα production and agr activity is essential for psm expression, the present study used an S. aureus agr reporter strain to elucidate the effect of RelA inhibition on agr expression.

The subject of the next experiment is Escherichia coli C. Kind of experiment: E. coli C aggregation under stress conditions. The experiment is classed as cell-based. To be noted: high salt, low temperature and amino acid starvation. The source says:
Bottom panels: Micrographs of the aggregates (or the lack thereof in the case of HEJ14 treated sample).
E. coli C, when under certain stress conditions, aggregates together and forms highly robust biofilms from a planktonic culture. It was hypothesized that inhibition of RelA would limit aggregation of E. coli C.

The test system of the next experiment is Haemophilus influenzae. The experiment can be described thus: Susceptibility of planktonic and biofilm H. influenzae strains to kanamycin alone and in combination with HEJ14. The experiment is classed as cell-based. From the text:
FIG. 3A: transformation frequency of wild type (Rd) Haemophilus influenzae versus ΔRelA Rd; FIG. 3B: transformation frequency of Rd versus ΔRelA/ΔSpot Rd; FIG. 3C: planktonic treatments: no treatment (left); kanamycin treatment (middle); HEJ14+kanamycin treatment (right). Left=WT Rd; middle=ΔRelA Rd and right=ΔRelA/ΔSpot Rd. FIG. 3D: biofilm treatments: no treatment (left); kanamycin treatment (middle); HEJ14+kanamycin treatment (right). Left=WT Rd; middle=ΔRelA Rd and right=ΔRelA/ΔSpot Rd.
To study the effects of HEJ14, including the risk of resistance mutations arising, the present study constructed single gene knockouts of RelA, SpoT, and MsfI (a gene that provides for survival in phagolysosomes) as well as a double RelA/SpoT knockout in the Gram-negative bacteria Haemophilus influenzae using an overlap PCR mutagenesis strategy.
The present study then evaluated the susceptibility of both planktonic (FIG. 3C) and biofilm cells (FIG. 3D) of WT, ΔRelA and the ΔRelA/ΔSpot H. influenzae strains to kanamycin (kan) alone and in combination with HEJ14. In all cases there was a 2-3 log increase in killing by the combo treatment confirming our initial premise that RelA inhibition would potentiate standard antibiotics.

For another experiment, the system named is Staphylococcus aureus. The experiment can be described thus: S. aureus in vitro growth kinetics (OD600). To be noted: stationary phase; HEJ14 125-500 μM, 24 hours. The experiment is classed as cell-based. The method, then: as §1
The present study further discovered that the bacterial anti-virulence effects of HEJ14 works on the Gram-positive pathogens, as well. To determine if HEJ14 has an effect on the Gram-positive bacteria Staphylococcus aureus, the present study performed in vitro growth kinetics assays testing various HEJ14 concentrations and measuring OD600 over time.

For experiment [3], the system named is P. aeruginosa. Kind of experiment: Wax worm model: larvae injected with supernatant of P. aeruginosa cultures grown with HEJ14. Format: in vivo. To be noted: larvae injected with supernatant of cultures treated with HEJ14 during growth vs untreated culture supernatants. The method, then:
(§2) FIG. 5A: HEJ14 reduced toxin production of P. aeruginosa. The label “DMSO 48 h” above the dish indicate that the larvae were injected with supernatant of P. aeruginosa culture grown with DMSO carrier only. […] Kaplan Meier Plot showing increased survival of wax worms receiving supernatant from HEJ14 treated P. aeruginosa culture. FIG. 5B: HEJ14 protected wax worm larvae from the lethality caused by P. aeruginosa infection. In FIG. 5B, larvae were injected with either live P. aeruginosa (10^5 CFU) and HEJ14, or the live bacteria and DMSO carrier only. Right dish: Larvae were injected with live P. aeruginosa (10^5 CFU) & 50 μM HEJ14. The Kaplan Meier Plot showing increased survival of wax worms receiving HEJ14 treated P. aeruginosa.
(§3) Similarly, HEJ14 protected the larvae for 48 hours when live P. aeruginosa were injected simultaneously with a single bolus of HEJ14 (FIG. 5B).

The subject of experiment [4] is P. aeruginosa. The experiment can be described thus: Wax worm model: larvae injected with live P. aeruginosa and HEJ14. Format: in vivo. To be noted: 48 hours post-injection; live P. aeruginosa (10^5 CFU) injected simultaneously with single bolus of 50 μM HEJ14. As for the experimental part:
as §2, §3

“Also recorded” adds a separate entry of the source.

On to `O=C(O)Cn1cc(C[C@H]2NC(=O)NC2=O)nn1` [HEJ14, (R)-2-(4-((2,5-dioxoimidazolidin-4-yl)methyl)-1H-1,2,3-triazol-1-yl)acetic acid], for which, in the experiment with P. aeruginosa [1], the pyocyanin toxin production entry was “decreased pyocyanin production”. Moreover, the “hemolytic effect of culture supernatants on blood agar plates” value in the experiment with S. aureus is “reduced hemolytic effect”. Further, in experiment [2], the “bioluminescence (in vivo bacterial burden)” value is on record as “significantly decreased” and the lesion size result is “significantly decreased”. For the same compound, in the experiment with agr, the “agr expression (GFP signal normalized to OD600)” value is on record as “dose-dependent decrease in agr expression”. The “E. coli C aggregation” value in the experiment with Escherichia coli C is on record as “completely absent; also recorded: reduced the amount of E. coli C aggregation”. Besides, in the experiment with Haemophilus influenzae (HEJ14 in combination with kanamycin vs kanamycin alone, planktonic and biofilm cells of WT, ΔRelA and ΔRelA/ΔSpot H. influenzae), the “increase in killing by the combo treatment” value is 2-3 log. The “planktonic and biofilm H. influenzae growth” value in the experiment on Haemophilus influenzae (even in ΔRelA strains) is “able to inhibit planktonic and biofilm H. influenzae growth”. For the same compound, in the experiment on Staphylococcus aureus, the “bacterial growth (OD600)” value was “enhanced bacterial growth during the stationary phase”. In addition, the “P. aeruginosa virulence in the wax worm model” value in the experiment with P. aeruginosa [3] is “significantly reduced P. aeruginosa virulence”. This compound also yielded a larvae survived with P. aeruginosa [4] of 95%.
